Source: paper PMC9764067 (Acta Pharmaceutica Sinica. B, 2022)

Legend:
EBOVpp = format: cell-based, Ebola virus
[1] = tested on: cellular content of cholesterol; format: cell-based
EBOV-GP/HIV-luc = format: cell-based, Ebola virus

O=C1Nc2ccc(Cl)cc2[C@@](C#CC2CC2)(C(F)(F)F)O1 [efavirenz]
inhibitory effect by time of drug addition (EBOVpp): maintained its inhibitory effect up to 8 hpi

CCN(CC)CCO[C@H]1CC[C@@]2(C)C(=CC[C@@H]3[C@@H]2CC[C@]2(C)C(=O)CC[C@@H]32)C1 [U18666A]
cellular content of cholesterol [1]: cholesterol accumulation

heparin
effect on uptake of viral genomic RNA (virus binding to the cell) (EBOV-GP/HIV-luc): marked inhibition
